Source: patent US5068247A, “2-aminopentanoic acid compounds and their use as immunosuppressants” (priority 1989, dated 1991)

System: mouse acute graft versus host reaction (GVHR)
Experiment: suppression of mouse acute graft versus host reaction (GVHR)
Type: in vivo
Procedure: C57BL/6 mouse spleen cell suspension (2×10^7 cells/mouse) was injected into the right hind footpad of 5- to 7-week-old BDF1 female mice. Seven days after injection, right popliteal lymph node was resected to measure the weight thereof and compare the weight with that of the left popliteal lymph node of the control mice injected with physiological saline, which was used as an index of acute graft versus host reaction (GVHR). The compound of Example 5 was administered intraperitoneally at the dose of 0.3 mg/kg, orally at the dose of 1 mg/kg and intramuscularly at the doses of 0.3 and 1 mg/kg for 6 days from the day of injection, and at the seventh day, the weight of the right poples lymphonodus was measured.

## CCCCCCCCCCCCC/C=C/C[C@@H](O)[C@H](O)[C@@](N)(CO)C(=O)O [Example 5]
0.3 mg/kg/day im × 6
  Body weight 7 days after injection: 20.0 ± 0.7 g
  Popliteal lymph node weight: 2.88 ± 0.58 mg
  Suppression: 60.0%
0.3 mg/kg/day ip × 6
  Body weight 7 days after injection: 19.0 ± 2.2 g
  Popliteal lymph node weight: 4.46 ± 1.72 mg
  Suppression: 38.1%
1 mg/kg/day im × 6
  Body weight 7 days after injection: 18.8 ± 1.3 g
  Popliteal lymph node weight: 2.28 ± 0.48 mg
  Suppression: 68.3%
1 mg/kg/day po × 6
  Body weight 7 days after injection: 20.4 ± 0.6 g
  Popliteal lymph node weight: 3.30 ± 0.64 mg
  Suppression: 54.2%
intraperitoneal, oral or intramuscular
  mouse acute graft versus host reaction (in words): strongly suppresses the mouse acute graft versus host reaction (GVHR)
